Converted amounts (≈) assume the structure as drawn.
How the values were obtained:
Streptococcus pneumoniae [1] = experiment: Antibacterial activity against penicillin-intermediate Streptococcus pneumoniae by macrodilution method; type: functional
Streptococcus pneumoniae [2] = experiment: Antibacterial activity against Streptococcus pneumoniae infected in neutropenic mouse thighs assessed as post antibiotic effect; type: functional, Thigh muscle
Enterobacter cloacae [3] = experiment: Antibacterial activity against Enterobacter cloacae assessed as post-antibiotic sub-MIC effect at 0.2 times MIC concentration pretreated with 10 times MIC concentration for 1 hr followed by 1:1000 dilution by viable plate count method; type: functional
Streptococcus pneumoniae [4] = experiment: Antibacterial activity against penicillin-susceptible Streptococcus pneumoniae assessed as sub-MIC effect at 0.3 times MIC concentration incubated for 1 hr by viable plate count method; type: functional
Escherichia coli [5] = experiment: Antibacterial activity against Escherichia coli assessed as sub-MIC effect at 0.2 times MIC concentration incubated for 1 hr by viable plate count method; type: functional
Haemophilus influenzae [6] = experiment: Antibacterial activity against beta-lactamase deficient and ampicillin-resistant Haemophilus influenzae by macrodilution method; type: functional
Staphylococcus aureus [7] = experiment: Antibacterial activity against vancomycin-sensitive methicillin-resistant Staphylococcus aureus assessed as sub-MIC effect at 0.2 times MIC concentration incubated for 1 hr by viable plate count method; type: functional
Klebsiella pneumoniae [8] = experiment: Antibacterial activity against Klebsiella pneumoniae by macrodilution method; type: functional
Haemophilus influenzae [9] = experiment: Antibacterial activity against amoxicillin, clavulanate-resistant Haemophilus influenzae expressing beta-lactamase assessed as post antibiotic effect at 10 times MIC concentration incubated for 1 hr measured after 1:1000 dilution by viable plate count method; type: functional
Haemophilus influenzae [10] = experiment: Antibacterial activity against beta-lactamase deficient and ampicillin-resistant Haemophilus influenzae assessed as post antibiotic effect at 10 times MIC concentration incubated for 1 hr measured after 1:1000 dilution by viable plate count method; type: functional
Acinetobacter baumannii [11] = experiment: Antibacterial activity against Acinetobacter baumannii assessed as post-antibiotic sub-MIC effect at 0.4 times MIC concentration pretreated with 6 times MIC concentration for 1 hr followed by 1:1000 dilution by viable plate count method; type: functional
Streptococcus pneumoniae [12] = experiment: Antibacterial activity against penicillin-intermediate Streptococcus pneumoniae assessed as post-antibiotic sub-MIC effect at 0.2 times MIC concentration pretreated with 10 times MIC concentration for 1 hr followed by 1:1000 dilution by viable plate count method; type: functional
Acinetobacter baumannii [13] = experiment: Antibacterial activity against Acinetobacter baumannii assessed as post-antibiotic sub-MIC effect at 0.2 times MIC concentration pretreated with 10 times MIC concentration for 1 hr followed by 1:1000 dilution by viable plate count method; type: functional
Streptococcus pneumoniae [14] = experiment: Antibacterial activity against penicillin-resistant Streptococcus pneumoniae assessed as post-antibiotic sub-MIC effect at 0.3 times MIC concentration pretreated with 10 times MIC concentration for 1 hr followed by 1:1000 dilution by viable plate count method; type: functional
Enterobacter cloacae [15] = experiment: Antibacterial activity against Enterobacter cloacae by macrodilution method; type: functional
Staphylococcus aureus [16] = experiment: Antibacterial activity against vancomycin-sensitive methicillin-resistant Staphylococcus aureus assessed as sub-MIC effect at 0.3 times MIC concentration incubated for 1 hr by viable plate count method; type: functional
Staphylococcus aureus [17] = experiment: Antibacterial activity against vancomycin-intermediate methicillin-resistant Staphylococcus aureus assessed as sub-MIC effect at 0.4 times MIC concentration incubated for 1 hr by viable plate count method; type: functional
Acinetobacter baumannii [18] = experiment: Antibacterial activity against Acinetobacter baumannii assessed as post antibiotic effect at 6 times MIC concentration incubated for 1 hr measured after 1:1000 dilution by viable plate count method; type: functional
Streptococcus pneumoniae [19] = experiment: Antibacterial activity against penicillin-susceptible Streptococcus pneumoniae assessed as sub-MIC effect at 0.4 times MIC concentration incubated for 1 hr by viable plate count method; type: functional
Streptococcus pneumoniae [20] = experiment: Antibacterial activity against penicillin-intermediate Streptococcus pneumoniae assessed as sub-MIC effect at 0.4 times MIC concentration incubated for 1 hr by viable plate count method; type: functional
Escherichia coli [21] = experiment: Antibacterial activity against Escherichia coli assessed as post antibiotic effect; type: functional
Escherichia coli [22] = experiment: Antibacterial activity against Escherichia coli assessed as post-antibiotic sub-MIC effect at 0.4 times MIC concentration pretreated with 10 times MIC concentration for 1 hr followed by 1:1000 dilution by viable plate count method; type: functional
Enterobacter cloacae [23] = experiment: Antibacterial activity against Enterobacter cloacae assessed as post antibiotic effect at 2 times MIC concentration incubated for 1 hr measured after 1:1000 dilution by viable plate count method; type: functional
Acinetobacter baumannii [24] = experiment: Antibacterial activity against multidrug-resistant Acinetobacter baumannii producing OXA-24 and OXA-51 beta-lactamases assessed as post antibiotic effect at 2 times MIC concentration incubated for 1 hr measured after 1:1000 dilution by viable plate count method; type: functional
Haemophilus influenzae [25] = experiment: Antibacterial activity against amoxicillin, clavulanate-resistant Haemophilus influenzae expressing beta-lactamase assessed as post-antibiotic sub-MIC effect at 0.2 times MIC concentration pretreated with 6 times MIC concentration for 1 hr followed by 1:1000 dilution by viable plate count method; type: functional
Escherichia coli [26] = experiment: Antibacterial activity against Escherichia coli assessed as post-antibiotic sub-MIC effect at 0.3 times MIC concentration pretreated with 10 times MIC concentration for 1 hr followed by 1:1000 dilution by viable plate count method; type: functional
Acinetobacter baumannii [27] = experiment: Antibacterial activity against multidrug-resistant Acinetobacter baumannii producing OXA-24 and OXA-51 beta-lactamases assessed as sub-MIC effect at 0.3 times MIC concentration incubated for 1 hr by viable plate count method; type: functional
Escherichia coli [28] = experiment: Antibacterial activity against Escherichia coli assessed as sub-MIC effect at 0.3 times MIC concentration incubated for 1 hr by viable plate count method; type: functional
Streptococcus pneumoniae [29] = experiment: Antibacterial activity against penicillin-resistant Streptococcus pneumoniae assessed as post-antibiotic sub-MIC effect at 0.2 times MIC concentration pretreated with 10 times MIC concentration for 1 hr followed by 1:1000 dilution by viable plate count method; type: functional
Enterobacter cloacae [30] = experiment: Antibacterial activity against Enterobacter cloacae assessed as sub-MIC effect at 0.2 times MIC concentration incubated for 1 hr by viable plate count method; type: functional
Klebsiella pneumoniae [31] = experiment: Antibacterial activity against Klebsiella pneumoniae assessed as sub-MIC effect at 0.2 times MIC concentration incubated for 1 hr by viable plate count method; type: functional
Streptococcus pneumoniae [32] = experiment: Antibacterial activity against penicillin-intermediate Streptococcus pneumoniae assessed as post-antibiotic sub-MIC effect at 0.4 times MIC concentration pretreated with 10 times MIC concentration for 1 hr followed by 1:1000 dilution by viable plate count method; type: functional
Enterobacter cloacae [33] = experiment: Antibacterial activity against Enterobacter cloacae assessed as post-antibiotic sub-MIC effect at 0.3 times MIC concentration pretreated with 10 times MIC concentration for 1 hr followed by 1:1000 dilution by viable plate count method; type: functional
Staphylococcus aureus [34] = experiment: Antibacterial activity against vancomycin-sensitive methicillin-resistant Staphylococcus aureus by macrodilution method; type: functional
Haemophilus influenzae [35] = experiment: Antibacterial activity against amoxicillin, clavulanate-resistant Haemophilus influenzae expressing beta-lactamase assessed as post-antibiotic sub-MIC effect at 0.3 times MIC concentration pretreated with 6 times MIC concentration for 1 hr followed by 1:1000 dilution by viable plate count method; type: functional
Klebsiella pneumoniae [36] = experiment: Antibacterial activity against Klebsiella pneumoniae assessed as post antibiotic effect at 10 times MIC concentration incubated for 1 hr measured after 1:1000 dilution by viable plate count method; type: functional
Enterococcus faecalis = experiment: Antibacterial activity against vancomycin-sensitive Enterococcus faecalis by macrodilution method; type: functional
Enterococcus faecium = experiment: Antibacterial activity against Enterococcus faecium assessed as post antibiotic effect; type: functional

CN(C)c1cc(NC(=O)CNC(C)(C)C)c(O)c2c1C[C@H]1C[C@H]3[C@H](N(C)C)C(O)=C(C(N)=O)C(=O)[C@@]3(O)C(O)=C1C2=O [TIGECYCLINE]
MIC (Streptococcus pneumoniae [1]): 0.06 µg/mL (≈ 0.102 µM)
PAE (Streptococcus pneumoniae [2]): 8.9 h
PAE (Enterobacter cloacae [3]): 3.6 h
PAE (Streptococcus pneumoniae [4]): 0 h
PAE (Escherichia coli [5]): 0 h
MIC (Haemophilus influenzae [6]): 0.06 µg/mL (≈ 0.102 µM)
PAE (Staphylococcus aureus [7]): 0.2 h
MIC (Klebsiella pneumoniae [8]): 0.25 µg/mL (≈ 0.427 µM)
PAE (Haemophilus influenzae [9]): 3.7 h
PAE (Haemophilus influenzae [10]): 1.1 h
PAE (Acinetobacter baumannii [11]): > 11.2 h
PAE (Streptococcus pneumoniae [12]): 6.1 h
PAE (Acinetobacter baumannii [13]): 6.7 h
PAE (Streptococcus pneumoniae [14]): 10.2 h
MIC (Enterobacter cloacae [15]): 0.5 µg/mL (≈ 0.854 µM)
PAE (Staphylococcus aureus [16]): 0.2 h
PAE (Staphylococcus aureus [17]): 2.9 h
PAE (Acinetobacter baumannii [18]): 1.8 h
PAE (Streptococcus pneumoniae [19]): 0.8 h
PAE (Streptococcus pneumoniae [20]): 7.7 h
PAE (Escherichia coli [21]): 2 h
PAE (Escherichia coli [22]): 3.5 h
PAE (Enterobacter cloacae [23]): 1 h
PAE (Acinetobacter baumannii [24]): 0.7 h
PAE (Haemophilus influenzae [25]): 3.9 h
PAE (Escherichia coli [26]): 2.2 h
PAE (Acinetobacter baumannii [27]): 0.7 h
PAE (Escherichia coli [28]): 0 h
PAE (Streptococcus pneumoniae [29]): 6.7 h
PAE (Enterobacter cloacae [30]): 0.2 h
PAE (Klebsiella pneumoniae [31]): 0.1 h
PAE (Streptococcus pneumoniae [32]): 8.8 h
PAE (Enterobacter cloacae [33]): 5 h
MIC (Staphylococcus aureus [34]): 0.12 µg/mL (≈ 0.205 µM)
PAE (Haemophilus influenzae [35]): 4.7 h
PAE (Klebsiella pneumoniae [36]): 1.7 h
MIC (Enterococcus faecalis): 0.06 µg/mL (≈ 0.102 µM)
PAE (Enterococcus faecium): 2.5 h

From ChEMBL document CHEMBL1629634, “Postantibiotic effect of tigecycline against 14 gram-positive organisms” (Antimicrob Agents Chemother, 2009)
